The values below are quoted from earlier work in patent US20250032585A1, “Effective Doses of CNP Conjugates” (Ascendis Pharma Growth Disorders A/S, priority 2021, published 2025).

As usually defined, the half-life is the time needed for the level to fall by half in the phase considered.

For series [1] the following is noted: in vivo, sc.
Another series relates to NPR-B receptor. The conditions noted are these: pediatric patients with achondroplasia; increase from pre-dose baseline.
Series [2] deals with pediatric patients with achondroplasia.

In the case of vosoritide, in series [1], the half-life is 21.0 to 27.9 min. Further, the “time of maximum urinary cGMP level post-dose” value in the series on NPR-B receptor was 2 h. Also, in series [2] (after 52 weeks of treatment), the “treatment difference in the change from baseline in annual growth velocity (AGV) compared to placebo” value was 1.57 cm/year. In series [2] (human, in vivo), the “subjects with decreased blood pressure” value is listed as 13% and the “subjects with symptomatic episode of decreased blood pressure with vomiting and/or dizziness” value is given as 3%.
